# Patent publication US10409869B2, “(R)- and (S)-1-(3-(3-N,N-dimethylaminocarbonyl)phenoxyl-4-nitrophenyl)-1-ethyl-N,N'-bis (ethylene)phosphoramidate, compositions and methods for their use and preparation” (OBI Pharma, Inc., priority 2015, dated 2019)
# What was measured:
# Format in all cases: in vivo, Cynomolgus monkeys
# [1] = Body weight in monkeys, 2 mg/kg 30-min IV infusion
# Protocol: (§1) TH 3423 and TH 3424 were tested in […] naïve monkeys (1 male and one female for each compound at 2 mg/kg) with 30-min intravenous infusion, TK sampling: on Day 1 and Day 15: 0.25, 0.5, 0.75, 1 and 2 hr post infusion initiation. Serum chemistry and hematology: pre-dose (Day 1), day 5, day 8 (pre-dose), day 15 (pre-dose), day 22 and day 28. Clinical observation: Daily during the study, total 35 days. Food consumption: Daily during the study, total 35 days. Bodyweight measurement: Twice weekly for five weeks.
# [2] = Serum chemistry in monkeys, 2 mg/kg 30-min IV infusion
# Protocol: as §1
# [3] = Plasma concentration and TK after 30-min IV infusion at 2 mg/kg; details: Cynomolgus, cynomolgus monkey, plasma, iv, 2 mg/kg
# Protocol: as §1
smiles,measurement,setting,value
"C[C@H](OP(=O)(N1CC1)N1CC1)c1ccc([N+](=O)[O-])c(Oc2cccc(C(=O)N(C)C)c2)c1 (single isomer, unassigned) [TH3424]",body weight,"[1]; Day 1, male",3.40
same,body weight,"[1]; Day 4, male",3.30
same,body weight,"[1]; Day 8, Mean",3.20
same,A/G,"[2]; female, Day 1 (pre-dose)",1.9
same,ALB,"[2]; female, Day 1 (pre-dose)",46.1 g/L
same,ALP,"[2]; female, Day 1 (pre-dose)",134.2 U/L
same,ALT,"[2]; female, Day 1 (pre-dose)",61.6 U/L
same,AST,"[2]; female, Day 1 (pre-dose)",23.7 U/L
same,BUN,"[2]; female, Day 1 (pre-dose)",3.43 mM
same,CK,"[2]; female, Day 1 (pre-dose)",202 U/L
same,CREA,"[2]; female, Day 1 (pre-dose)",61 µM
same,Ca,"[2]; female, Day 1 (pre-dose)",2.51 mmol/L
same,GLB,"[2]; female, Day 1 (pre-dose)",24.1 g/L
same,Glu,"[2]; female, Day 1 (pre-dose)",3.34 mM
same,K,"[2]; female, Day 1 (pre-dose)",5.77 mmol/L
same,Na,"[2]; female, Day 1 (pre-dose)",143 mmol/L
same,TBIL,"[2]; female, Day 1 (pre-dose)",1.5 µM
same,TC,"[2]; female, Day 1 (pre-dose)",3.04 mM
same,TG,"[2]; female, Day 1 (pre-dose)",0.17 mmol/L
same,TP,"[2]; female, Day 1 (pre-dose)",70.2 g/L
same,γ-GT,"[2]; female, Day 1 (pre-dose)",47.3 U/L
same,A/G,"[2]; female, Day 8 (pre-dose)",1.4
same,ALB,"[2]; female, Day 8 (pre-dose)",41.8 g/L
same,ALP,"[2]; female, Day 8 (pre-dose)",200.2 U/L
same,ALT,"[2]; female, Day 8 (pre-dose)",37.7 U/L
same,AST,"[2]; female, Day 8 (pre-dose)",43.1 U/L
same,BUN,"[2]; female, Day 8 (pre-dose)",5.63 mM
same,CK,"[2]; female, Day 8 (pre-dose)",190 U/L
same,CREA,"[2]; female, Day 8 (pre-dose)",88 µM
same,Ca,"[2]; female, Day 8 (pre-dose)",2.37 mmol/L
same,GLB,"[2]; female, Day 8 (pre-dose)",30.6 g/L
same,Glu,"[2]; female, Day 8 (pre-dose)",5.91 mM
same,K,"[2]; female, Day 8 (pre-dose)",4.33 mmol/L
same,Na,"[2]; female, Day 8 (pre-dose)",143 mmol/L
same,TBIL,"[2]; female, Day 8 (pre-dose)",0.8 µM
same,TC,"[2]; female, Day 8 (pre-dose)",2.91 mM
same,TG,"[2]; female, Day 8 (pre-dose)",0.63 mmol/L
same,TP,"[2]; female, Day 8 (pre-dose)",72.4 g/L
same,γ-GT,"[2]; female, Day 8 (pre-dose)",36.2 U/L
same,A/G,"[2]; female, Day 15 (pre-dose)",1.6
same,ALB,"[2]; female, Day 15 (pre-dose)",38.5 g/L
same,ALP,"[2]; female, Day 15 (pre-dose)",151.5 U/L
same,ALT,"[2]; female, Day 15 (pre-dose)",31.9 U/L
same,AST,"[2]; female, Day 15 (pre-dose)",23.8 U/L
same,BUN,"[2]; female, Day 15 (pre-dose)",3.87 mM
same,CK,"[2]; female, Day 15 (pre-dose)",78 U/L
same,CREA,"[2]; female, Day 15 (pre-dose)",46 µM
same,Ca,"[2]; female, Day 15 (pre-dose)",2.2 mmol/L
same,GLB,"[2]; female, Day 15 (pre-dose)",23.8 g/L
same,Glu,"[2]; female, Day 15 (pre-dose)",2.8 mM
same,K,"[2]; female, Day 15 (pre-dose)",5.58 mmol/L
same,Na,"[2]; female, Day 15 (pre-dose)",132.59 mmol/L
same,TBIL,"[2]; female, Day 15 (pre-dose)",4.0 µM
same,TC,"[2]; female, Day 15 (pre-dose)",2.23 mM
same,TG,"[2]; female, Day 15 (pre-dose)",0.94 mmol/L
same,TP,"[2]; female, Day 15 (pre-dose)",62.3 g/L
same,γ-GT,"[2]; female, Day 15 (pre-dose)",34.2 U/L
same,A/G,"[2]; male, Day 1 (pre-dose)",2.5
same,ALB,"[2]; male, Day 1 (pre-dose)",50.5 g/L
same,ALP,"[2]; male, Day 1 (pre-dose)",287.5 U/L
same,ALT,"[2]; male, Day 1 (pre-dose)",43.0 U/L
same,AST,"[2]; male, Day 1 (pre-dose)",40.2 U/L
same,BUN,"[2]; male, Day 1 (pre-dose)",4.89 mM
same,CK,"[2]; male, Day 1 (pre-dose)",221 U/L
same,CREA,"[2]; male, Day 1 (pre-dose)",91 µM
same,Ca,"[2]; male, Day 1 (pre-dose)",2.38 mmol/L
same,GLB,"[2]; male, Day 1 (pre-dose)",19.9 g/L
same,Glu,"[2]; male, Day 1 (pre-dose)",4.5 mM
same,K,"[2]; male, Day 1 (pre-dose)",4.31 mmol/L
same,Na,"[2]; male, Day 1 (pre-dose)",147 mmol/L
same,TBIL,"[2]; male, Day 1 (pre-dose)",2.1 µM
same,TC,"[2]; male, Day 1 (pre-dose)",3.22 mM
same,TG,"[2]; male, Day 1 (pre-dose)",0.38 mmol/L
same,TP,"[2]; male, Day 1 (pre-dose)",70.4 g/L
same,γ-GT,"[2]; male, Day 1 (pre-dose)",62.2 U/L
same,A/G,"[2]; male, Day 8 (pre-dose)",2.0
same,ALB,"[2]; male, Day 8 (pre-dose)",43.3 g/L
same,ALP,"[2]; male, Day 8 (pre-dose)",225.2 U/L
same,ALT,"[2]; male, Day 8 (pre-dose)",31.2 U/L
same,AST,"[2]; male, Day 8 (pre-dose)",31.2 U/L
same,BUN,"[2]; male, Day 8 (pre-dose)",4.8 mM
same,CK,"[2]; male, Day 8 (pre-dose)",83 U/L
same,CREA,"[2]; male, Day 8 (pre-dose)",96 µM
same,Ca,"[2]; male, Day 8 (pre-dose)",2.33 mmol/L
same,GLB,"[2]; male, Day 8 (pre-dose)",21.8 g/L
same,Glu,"[2]; male, Day 8 (pre-dose)",4.15 mM
same,K,"[2]; male, Day 8 (pre-dose)",4.51 mmol/L
same,Na,"[2]; male, Day 8 (pre-dose)",147 mmol/L
same,TBIL,"[2]; male, Day 8 (pre-dose)",3.6 µM
same,TC,"[2]; male, Day 8 (pre-dose)",3.06 mM
same,TG,"[2]; male, Day 8 (pre-dose)",0.66 mmol/L
same,TP,"[2]; male, Day 8 (pre-dose)",65.1 g/L
same,γ-GT,"[2]; male, Day 8 (pre-dose)",44.9 U/L
same,A/G,"[2]; male, Day 15 (pre-dose)",2.2
same,ALB,"[2]; male, Day 15 (pre-dose)",36.8 g/L
same,ALP,"[2]; male, Day 15 (pre-dose)",174.8 U/L
same,ALT,"[2]; male, Day 15 (pre-dose)",45.0 U/L
same,AST,"[2]; male, Day 15 (pre-dose)",73.5 U/L
same,BUN,"[2]; male, Day 15 (pre-dose)",9.66 mM
same,CK,"[2]; male, Day 15 (pre-dose)",172 U/L
same,CREA,"[2]; male, Day 15 (pre-dose)",58 µM
same,Ca,"[2]; male, Day 15 (pre-dose)",2.14 mmol/L
same,GLB,"[2]; male, Day 15 (pre-dose)",16.4 g/L
same,Glu,"[2]; male, Day 15 (pre-dose)",1.47 mM
same,K,"[2]; male, Day 15 (pre-dose)",6.05 mmol/L
same,Na,"[2]; male, Day 15 (pre-dose)",136.14 mmol/L
same,TBIL,"[2]; male, Day 15 (pre-dose)",2.1 µM
same,TC,"[2]; male, Day 15 (pre-dose)",1.44 mM
same,TG,"[2]; male, Day 15 (pre-dose)",0.41 mmol/L
same,TP,"[2]; male, Day 15 (pre-dose)",53.2 g/L
same,γ-GT,"[2]; male, Day 15 (pre-dose)",36.7 U/L
same,AUC(0-inf),"[3]; both sexes, Mean",1460 ng·h/mL
same,AUC(0-t),"[3]; both sexes, Mean",1460 ng·h/mL
same,AUC(0-inf),[3]; female,1200 ng·h/mL
same,AUC(0-t),[3]; female,1200 ng·h/mL
same,AUC(0-inf),[3]; male,1730 ng·h/mL
same,AUC(0-t),[3]; male,1720 ng·h/mL
